Source: patent US20070148258A1, “Dialysates and methods and systems related thereto” (priority 2003, published 2007)
Where two headings read alike, the source gives them in different places.

How the values were obtained:
injured aortas = system: injured aortas
Description: Injured aortas were incubated for 6 days in DMEM containing 3.8 mM PO4^−3 and varying concentrations of pyrophosphate. Results are means of at least 4 aortic rings.

[1] = 4 L PPi in physiologic saline, 400 ml/min, dialysate without calcium 800 ml/min, 2.1 m^2 cellulose acetate membrane
Description: FIG. 2 is an exemplary graph illustrating the results of in vitro dialysis of pyrophosphate. […] The concentration of pyrophosphate was measured at the times indicated. The line represents a single exponential fit.
(§1) Several studies were undertaken to determine the extent of PPi removal with dialysis. […] In 17 patients, some of whom were included in the predialysis data, plasma PPi concentration was measured before and after dialysis (FIG. 3).

[2] = human, in vivo
Description: To determine whether PPi metabolism is altered in hemodialysis patients, plasma levels and dialytic clearance of PPi were measured in stable hemodialysis patients. Predialysis plasma samples were obtained from 15 patients in an outpatient dialysis unit and from 23 inpatients. The inpatients were clinically stable and were admitted for transplant evaluation or for dialysis access problems.

aortic cultures = conditions: based on rate of hydrolysis of [32P]pyrophosphate
[3] = human, in vivo; remark: listed apart in the source
Description: Samples were drawn immediately before and immediately after dialysis from the predialyzer tubing. The lines to the left and right indicate the mean values before and after dialysis respectively.
as §1
Dialysate was collected during 4 treatments in 4 different patients order to measure the total amount of PPi removed.

normal aortas = assay: Calcification of normal aortas cultured in high-PO4 medium with added enzymes; assay type: cell-based, rat; conditions: enzyme added to culture in DMEM with 3.8 mM PO4 (inorganic pyrophosphatase 12-20 units/ml, 9 days)

In vitro dialyzer clearance of PPi [1] | Mean plasma [PPi] lower in hemodialysis patients than in normal subjects [2] | Estimated pyrophosphate concentration 3 days after adding (aortic cultures; 5 μM added) | Estimated pyrophosphate concentration 3 days after adding (aortic cultures; 10 μM added) | Estimated pyrophosphate concentration 3 days after adding (aortic cultures; 30 μM added) | Decrease of plasma PPi concentration after dialysis, range [3] | Molecule | Inhibition of calcification in injured aortas (injured aortas; 2.5 M pyrophosphate, 6 days in DMEM with 3.8 mM PO4) | Concentrations at which inhibition of vascular calcification occurs in vitro (injured aortas; concentrations normally present in human plasma) | Concentration that maximally inhibited calcification in injured aortas (injured aortas; cultured rat aortas) | Effect on calcification of normal aortas (normal aortas)
36% | 31% | 18 µM | 3.1 µM | 7.9 µM | 4-59% | O=P(O)(O)OP(=O)(O)O [pyrophosphate] | no inhibition | 3 to 5 µM | approximately 3 μM | –
– | – | – | – | – | – | Alkaline phosphatase | – | – | – | induced calcification
